For four compounds, EC50 and Activity results are on record in ChEMBL document CHEMBL1221261, “Fluorescent retinoid X receptor ligands for fluorescence polarization assay” (Bioorg Med Chem Lett, 2010).

By EC50 is commonly meant the concentration giving half of the maximal effect.

In experiment [1] the target is T1, Retinoic acid receptor RXR-alpha (Homo sapiens, UniProt P19793).
T1 sequence (P19793 whole entry): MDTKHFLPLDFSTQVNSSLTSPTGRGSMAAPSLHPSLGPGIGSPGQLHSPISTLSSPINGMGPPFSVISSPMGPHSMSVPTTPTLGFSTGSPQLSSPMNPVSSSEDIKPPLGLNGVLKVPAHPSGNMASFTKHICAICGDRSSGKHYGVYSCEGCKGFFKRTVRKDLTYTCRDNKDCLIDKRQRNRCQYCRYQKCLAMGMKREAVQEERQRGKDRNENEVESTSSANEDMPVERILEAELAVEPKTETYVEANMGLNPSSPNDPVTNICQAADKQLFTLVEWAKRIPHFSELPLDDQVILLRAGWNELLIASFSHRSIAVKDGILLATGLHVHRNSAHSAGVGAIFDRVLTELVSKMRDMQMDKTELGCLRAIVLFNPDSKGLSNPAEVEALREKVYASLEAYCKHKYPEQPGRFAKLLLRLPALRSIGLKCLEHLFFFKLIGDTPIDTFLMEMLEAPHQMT
As to the kind of experiment: (§1) Agonist activity at human RXRalpha expressed in […] cells by luciferase reporter gene assay. In kind it is functional, cell-based, COS-7. In general terms: A reporter such as luciferase makes a cellular process visible.

Experiment [2] deals with T2, Retinoic acid receptor RXR-alpha (Homo sapiens) (UniProt P19793).
T2 sequence (whole entry): T1 sequence (P19793 whole entry)
Described as §1. Format: functional, cell-based. To be noted: COS-7.

In experiment [3] the target is T2, Retinoic acid receptor RXR-alpha (Homo sapiens). As to the kind of experiment: Agonist activity at human RXRalpha expressed in […] cells at 1 uM by luciferase reporter gene assay. Format: functional, cell-based. To be noted: COS-7.

Molecules are shown by their SMILES. Active and inactive are the calls of the source. No cut-off for these calls is given here.

In experiment [1], `CCN(c1ccc(C(=O)O)cn1)c1ccc2c(C(F)(F)F)cc(=O)n(C)c2n1` gave an EC50 of 1 µM. In other words, the single-digit micromolar range.
On the same count and under the same terms, the same measure for `CCN(c1ccc(C(=O)O)cn1)c1ccc2c(C(F)(F)F)cc(=O)n(CC)c2n1`: 1 µM.
Take `CCN(c1ccc(C(=O)O)cn1)c1ccc2c(C)cc(=O)n(C)c2n1`: in experiment [2], the result was inactive.
`CCN(c1ccc(C(=O)O)cn1)c1ccc2c(C(F)(F)F)cc(=O)n(CC(C)C)c2n1` yielded a 50% effective concentration (EC50) in experiment [1] of 1 µM. Moreover, the outcome in experiment [3] was Active.
